In patent US11707447B1:

Key:
[1] = In vitro metabolic stability / psilocin release, human AB serum; type: in vitro ADME; details: AB serum
Description: A fundamental evaluation in drug development is the assessment of absorption, distribution, metabolism, excretion, and pharmacokinetics (ADME/PK) (Eddershaw et al., 2000, Drug Discovery Today 5(9): 409-414). […] Drug stability upon exposure to human liver microsomes and liver S9 cellular fractions is a common in vitro assay to approximate in vivo, liver-based drug metabolism (Richardson et al., 2016 Drug Metabolism Letters 10:83-90). First-pass metabolism is also often approximated in vitro using intestinal microsome and cellular S9 fractions (Hatley et al., 2017, Biopharmaceuticals & Drug Disposition, 38(2):155-160). Further, it is well known that human serum, and particularly circulating serum esterases can contribute to systemic drug metabolism (Williams, F M 1987, Pharmacology and Therapeutics, 34:99-109). Many pharmacological agents are classified as prodrugs, as they undergo metabolic transformation in vivo upon administration to release the active drug compound into the systemic compartment (Zawilska J B, et al. 2013, Pharmacological Reports, 65:1-14). Psilocybin, a serotonergic psychedelic agent, is well known prodrug that is metabolized into the psychoactive product, psilocin (Dinis-Oliveira, R J 2017, Drug Metabolism Reviews, 49(1):84-91). To evaluate the capacity of test molecules to similarly serve as prodrugs of psilocin, time-dependent, metabolic stability assays using human AB serum, human intestinal microsomes (HIM), human intestinal S9 fractions (HIS9), human liver microsomes (HLM), human liver S9 fractions (HLS9), human alkaline phosphatase, and porcine esterase were performed. […] Liquid chromatography coupled mass spectrometry (LC-MS) was employed to track the conversion of the test molecules into psilocin. All intestinal and liver fractions and NADPH RapidStart reagent was purchased from Sekisui/XenoTech. Human AB serum was purchased from Sigma. […] Supernatants were analyzed for the presence of candidate prodrugs (parent molecule) and psilocin (the predicted metabolite) using Orbitrap LC-MS (Thermo Scientific) using previously described methods (Menéndez-Perdomo et al., 2021, J. Mass Spectrom., 56: e4683). […] Assay concentrations (μM) of both parent ‘prodrug’ molecule and psilocin metabolite, as quantified through LC-MS using routine standard curve procedures, were plotted as functions of assay time (minutes). The metabolism rate (T1/2) was determined from the metabolism curve plot using the one phase decay feature of GraphPad PRISM software (Version 9.2.0). The quantity of parent prodrug at time zero was set as 100%. […]

5-HT2A receptor [2] = target: T1, 5-HT2A receptor (Mus musculus, UniProt P35363); assay: Drug-induced Head Twitch Response (HTR) in mice; type: in vivo; details: 1 mg/kg i.p., 15-to-30-minute window after dosing, vs vehicle
T1 construct: tissue Charles River; host or cells: whole animal, C57BL/6-Elite mice (brain neurons)
T1 sequence (P35363 whole entry): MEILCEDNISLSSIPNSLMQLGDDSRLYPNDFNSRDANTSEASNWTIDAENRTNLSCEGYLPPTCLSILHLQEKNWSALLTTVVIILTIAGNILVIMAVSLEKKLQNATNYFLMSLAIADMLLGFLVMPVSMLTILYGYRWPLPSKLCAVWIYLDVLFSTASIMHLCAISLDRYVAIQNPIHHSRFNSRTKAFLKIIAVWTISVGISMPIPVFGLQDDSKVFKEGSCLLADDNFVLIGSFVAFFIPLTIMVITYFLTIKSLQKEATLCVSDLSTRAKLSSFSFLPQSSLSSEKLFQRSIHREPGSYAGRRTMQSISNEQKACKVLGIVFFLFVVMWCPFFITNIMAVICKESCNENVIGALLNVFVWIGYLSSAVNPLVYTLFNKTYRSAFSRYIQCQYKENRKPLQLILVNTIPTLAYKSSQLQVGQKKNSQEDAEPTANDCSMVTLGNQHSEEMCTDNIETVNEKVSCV

[3] = Mouse pharmacokinetic (PK) evaluation of drug metabolism to psilocin; details: mean ± SD
in vitro = in vitro ADME, human
Description: A fundamental evaluation in drug development is the assessment of absorption, distribution, metabolism, excretion, and pharmacokinetics (ADME/PK) (Eddershaw et al., 2000, Drug Discovery Today 5(9): 409-414). […] Drug stability upon exposure to human liver microsomes and liver S9 cellular fractions is a common in vitro assay to approximate in vivo, liver-based drug metabolism (Richardson et al., 2016 Drug Metabolism Letters 10:83-90). First-pass metabolism is also often approximated in vitro using intestinal microsome and cellular S9 fractions (Hatley et al., 2017, Biopharmaceuticals & Drug Disposition, 38(2):155-160). Further, it is well known that human serum, and particularly circulating serum esterases can contribute to systemic drug metabolism (Williams, F M 1987, Pharmacology and Therapeutics, 34:99-109). Many pharmacological agents are classified as prodrugs, as they undergo metabolic transformation in vivo upon administration to release the active drug compound into the systemic compartment (Zawilska J B, et al. 2013, Pharmacological Reports, 65:1-14). Psilocybin, a serotonergic psychedelic agent, is well known prodrug that is metabolized into the psychoactive product, psilocin (Dinis-Oliveira, R J 2017, Drug Metabolism Reviews, 49(1):84-91). To evaluate the capacity of test molecules to similarly serve as prodrugs of psilocin, time-dependent, metabolic stability assays using human AB serum, human intestinal microsomes (HIM), human intestinal S9 fractions (HIS9), human liver microsomes (HLM), human liver S9 fractions (HLS9), human alkaline phosphatase, and porcine esterase were performed. […] Liquid chromatography coupled mass spectrometry (LC-MS) was employed to track the conversion of the test molecules into psilocin. All intestinal and liver fractions and NADPH RapidStart reagent was purchased from Sekisui/XenoTech. Human AB serum was purchased from Sigma. For intestine and liver metabolism assays, 2.5 μM candidate compounds were incubated in 400 μg/ml of each cellular fraction (HLM, HLS9, HIM, or HIS9) in 50 mM potassium phosphate buffer (pH 7.4) containing 3 mM MgCl2 and 1 mM EDTA supplemented with NADPH RapidStart at 37° C. Samples were taken at the start of the assay, and at every 20 minutes for 2 hours. Time-point samples were precipitated with 1:1 volume of acetonitrile to quench the reaction before centrifugation at 4000×g for 20 minutes. Supernatants were analyzed for the presence of candidate prodrugs (parent molecule) and psilocin (the predicted metabolite) using Orbitrap LC-MS (Thermo Scientific) using previously described methods (Menéndez-Perdomo et al., 2021, J. Mass Spectrom., 56: e4683). The serum assays were carried out in 10% human AB serum in 50 mM potassium phosphate buffer (pH 7.4) containing 3 mM MgCl2 and 1 mM EDTA. Bovine alkaline phosphatase assays were carried out using one unit of purified enzyme in 50 mM potassium phosphate buffer (pH 7.4) containing 3 mM MgCl2 and 1 mM EDTA. Porcine esterase assays were carried out using one unit of purified enzyme in 50 mM potassium phosphate buffer (pH 7.4) containing 3 mM MgCl2 and 1 mM EDTA. Assay concentrations (μM) of both parent ‘prodrug’ molecule and psilocin metabolite, as quantified through LC-MS using routine standard curve procedures, were plotted as functions of assay time (minutes). The metabolism rate (T1/2) was determined from the metabolism curve plot using the one phase decay feature of GraphPad PRISM software (Version 9.2.0). The quantity of parent prodrug at time zero was set as 100%.
Positive controls were first tested to ensure that assays were functioning properly.

5-HT2A receptor [4] = target: 5-HT2A receptor (Homo sapiens, UniProt P28223); assay: [3H]ketanserin competition radioligand binding assay (SPA); details: control ligands
Sequence of 5-HT2A receptor (Homo sapiens, UniProt P28223) (P28223 whole entry): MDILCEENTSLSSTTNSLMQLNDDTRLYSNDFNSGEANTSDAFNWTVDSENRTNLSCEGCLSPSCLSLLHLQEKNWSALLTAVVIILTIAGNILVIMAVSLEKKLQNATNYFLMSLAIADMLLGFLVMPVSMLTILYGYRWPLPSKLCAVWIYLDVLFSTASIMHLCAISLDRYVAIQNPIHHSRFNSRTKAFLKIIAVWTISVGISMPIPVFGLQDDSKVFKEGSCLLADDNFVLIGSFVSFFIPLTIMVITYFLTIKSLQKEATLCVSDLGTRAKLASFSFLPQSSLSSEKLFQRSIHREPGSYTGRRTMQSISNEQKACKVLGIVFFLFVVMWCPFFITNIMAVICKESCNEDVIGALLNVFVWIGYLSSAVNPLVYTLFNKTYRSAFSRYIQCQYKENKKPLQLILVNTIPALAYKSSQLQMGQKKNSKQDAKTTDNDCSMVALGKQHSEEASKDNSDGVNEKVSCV

5-HT1A receptor = target: T2, 5-HT1A receptor (Homo sapiens, UniProt P08908); assay: cAMP-Glo assay in +5-HT1A / -5-HT1A CHO-K1 cells; type: cell-based; details: forskolin-stimulated +5-HT1A vs -5-HT1A cells, increasing ligand
T2 construct: host or cells: CHO-K1 (co-expressing Ga15)
T2 sequence (P08908 1-422): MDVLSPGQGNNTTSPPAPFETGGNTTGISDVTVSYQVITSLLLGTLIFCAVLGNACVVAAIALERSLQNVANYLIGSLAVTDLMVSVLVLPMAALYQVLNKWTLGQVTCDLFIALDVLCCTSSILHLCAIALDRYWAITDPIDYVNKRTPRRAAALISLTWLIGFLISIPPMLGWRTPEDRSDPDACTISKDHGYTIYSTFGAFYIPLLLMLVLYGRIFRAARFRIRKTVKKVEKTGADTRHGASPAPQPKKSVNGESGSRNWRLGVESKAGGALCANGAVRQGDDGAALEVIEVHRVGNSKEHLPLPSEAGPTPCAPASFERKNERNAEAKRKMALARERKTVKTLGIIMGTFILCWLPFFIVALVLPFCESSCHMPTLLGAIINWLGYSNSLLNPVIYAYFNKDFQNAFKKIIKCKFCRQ

[5] = 1 mg/kg oral of administered compound
[6] = 3 mg/kg oral of administered compound
[7] = 10 mg/kg oral of administered compound

CN(C)CCc1c[nH]c2cccc(OC(=O)OCc3ccccc3)c12 [B(II), reference compound]
metabolic stability / conversion to psilocin (in words) [1]: failed completely to dissociate
Head Twitch Response (in words) (5-HT2A receptor [2]): elicit head twitching
Plasma concentration of psilocin ([3]; 1 mg/kg oral of administered compound, 0.25 h): 19.7 ± 5.50 ng/mL
Plasma concentration of psilocin ([3]; 1 mg/kg oral of administered compound, 0.5 h): 11.9 ± 2.03 ng/mL
Plasma concentration of psilocin ([3]; 1 mg/kg oral of administered compound, 1 h): 4.63 ± 0.788 ng/mL
Plasma concentration of psilocin ([3]; 1 mg/kg oral of administered compound, 2 h): 2.20 ± 0.850 ng/mL
Plasma concentration of psilocin ([3]; 1 mg/kg oral of administered compound, 4 h): 2.05 ± 0.359 ng/mL
Plasma concentration of psilocin ([3]; 1 mg/kg oral of administered compound, 6 h): 0.739 ± 0.288 ng/mL
Plasma concentration of psilocin ([3]; 1 mg/kg oral of administered compound, 8 h): 0.453 ± 0.0460 ng/mL
AUC0-tlast/Dose (plasma psilocin) [3, 5]: 21.0 ± 1.55 kg·ng·h/mL/mg
Cmax/Dose (plasma psilocin) [3, 5]: 19.7 ± 5.50 kg·ng/mL/mg
Plasma concentration of psilocin ([3]; 3 mg/kg oral of administered compound, 0.25 h): 55.6 ± 8.67 ng/mL
Plasma concentration of psilocin ([3]; 3 mg/kg oral of administered compound, 0.5 h): 32.3 ± 4.98 ng/mL
Plasma concentration of psilocin ([3]; 3 mg/kg oral of administered compound, 1 h): 9.29 ± 3.05 ng/mL
Plasma concentration of psilocin ([3]; 3 mg/kg oral of administered compound, 2 h): 7.67 ± 0.921 ng/mL
Plasma concentration of psilocin ([3]; 3 mg/kg oral of administered compound, 4 h): 6.76 ± 2.13 ng/mL
Plasma concentration of psilocin ([3]; 3 mg/kg oral of administered compound, 6 h): 2.41 ± 0.845 ng/mL
Plasma concentration of psilocin ([3]; 3 mg/kg oral of administered compound, 8 h): 0.722 ± 0.368 ng/mL
AUC0-tlast/Dose (plasma psilocin) [3, 6]: 20.3 ± 2.78 kg·ng·h/mL/mg
Cmax/Dose (plasma psilocin) [3, 6]: 18.5 ± 2.89 kg·ng/mL/mg
Plasma concentration of psilocin ([3]; 10 mg/kg oral of administered compound, 0.25 h): 306 ± 34.6 ng/mL
Plasma concentration of psilocin ([3]; 10 mg/kg oral of administered compound, 0.5 h): 125 ± 16.3 ng/mL
Plasma concentration of psilocin ([3]; 10 mg/kg oral of administered compound, 1 h): 49.6 ± 10.5 ng/mL
Plasma concentration of psilocin ([3]; 10 mg/kg oral of administered compound, 2 h): 20.7 ± 1.42 ng/mL
Plasma concentration of psilocin ([3]; 10 mg/kg oral of administered compound, 4 h): 31.4 ± 6.34 ng/mL
Plasma concentration of psilocin ([3]; 10 mg/kg oral of administered compound, 6 h): 11.5 ± 1.43 ng/mL
Plasma concentration of psilocin ([3]; 10 mg/kg oral of administered compound, 8 h): 6.38 ± 2.98 ng/mL
Plasma concentration of psilocin ([3]; 10 mg/kg oral of administered compound, 24 h): 0.104 ng/mL
AUC0-tlast/Dose (plasma psilocin) [3, 7]: 28.2 ± 4.12 kg·ng·h/mL/mg
Cmax/Dose (plasma psilocin) [3, 7]: 30.6 ± 3.46 kg·ng/mL/mg
metabolic stability / conversion to psilocin (in words) (in vitro; HLM): did not readily dissociate to psilocin under any conditions
metabolic stability / conversion to psilocin (in words) (in vitro; HLS9): did not readily dissociate to psilocin under any conditions

CN(C)CCc1c[nH]c2cccc(O)c12 [psilocin]
5-HT2A competition binding (in words) (5-HT2A receptor [4]): positive control (binding)
cAMP level / 5-HT1A receptor modulation (in words) (5-HT1A receptor): reduction in cAMP levels
